# In patent US9249140B2, “Bicyclic heteroaromatic compounds” (MERCK PATENT GMBH, priority 2011, dated 2016):
# Molecular target: T1, FAK (Homo sapiens, UniProt Q05397)
# T1 construct: 2 nM FAK, 400 nM biotinylated substrate
# Assay: FAK kinase assay (autophosphorylation), 384-well flashplate
# Assay type: biochemical
# Details: enzymatic; 1 μM ATP; read-out: IC50 (enzymatic), FAK inhibition
# Protocol: The focal adhesion kinase (FAK) assay is carried out either as a 384-well flashplate assay (for example for Topcount measurements) or as a 384-well image flashplate assay (for LEADseeker measurements). […] The reaction is stopped using 25 μl of 200 mM EDTA. After 30 min at 30° C., the liquid is removed, and each well is washed three times with 100 μl of 0.9% sodium chloride solution. Non-specific reaction is determined in the presence of 1 μM EMD 1076893/0(PF-562271). The radioactivity is measured using Topcount (in the case of the use of flashplates) or using LEADseeker (in the case of the use of image flashplates).
# T1 sequence (Q05397 whole entry): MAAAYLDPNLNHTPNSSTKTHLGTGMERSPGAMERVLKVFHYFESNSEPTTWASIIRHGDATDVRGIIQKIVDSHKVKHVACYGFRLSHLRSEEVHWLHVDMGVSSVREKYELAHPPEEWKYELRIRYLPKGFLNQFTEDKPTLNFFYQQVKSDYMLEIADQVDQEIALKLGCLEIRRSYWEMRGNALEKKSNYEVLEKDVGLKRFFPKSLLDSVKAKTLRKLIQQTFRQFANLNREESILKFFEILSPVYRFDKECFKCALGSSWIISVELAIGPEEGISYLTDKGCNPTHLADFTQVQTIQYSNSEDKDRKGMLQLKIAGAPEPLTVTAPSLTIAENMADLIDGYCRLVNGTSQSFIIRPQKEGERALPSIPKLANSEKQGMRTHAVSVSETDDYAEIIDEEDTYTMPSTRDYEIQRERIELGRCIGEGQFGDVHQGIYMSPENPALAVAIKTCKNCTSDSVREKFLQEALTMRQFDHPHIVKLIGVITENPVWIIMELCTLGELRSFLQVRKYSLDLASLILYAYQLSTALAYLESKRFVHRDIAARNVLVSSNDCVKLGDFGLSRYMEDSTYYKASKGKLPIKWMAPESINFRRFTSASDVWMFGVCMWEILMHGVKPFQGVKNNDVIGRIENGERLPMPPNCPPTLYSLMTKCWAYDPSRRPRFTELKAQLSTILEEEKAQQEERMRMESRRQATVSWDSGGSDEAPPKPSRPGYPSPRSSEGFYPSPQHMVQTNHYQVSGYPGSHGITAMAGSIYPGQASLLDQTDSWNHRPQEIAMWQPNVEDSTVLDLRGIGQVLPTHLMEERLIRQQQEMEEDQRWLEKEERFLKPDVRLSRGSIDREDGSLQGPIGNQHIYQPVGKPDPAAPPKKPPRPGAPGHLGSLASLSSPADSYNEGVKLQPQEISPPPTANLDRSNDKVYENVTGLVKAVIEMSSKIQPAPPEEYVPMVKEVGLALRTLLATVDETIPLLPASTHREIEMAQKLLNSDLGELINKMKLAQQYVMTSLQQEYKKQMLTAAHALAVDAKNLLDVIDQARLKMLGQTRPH
row,IC50,SMILES
1,3 to 50 µM,"CN(c1ncccc1-c1cc2ccnc(Nc3ccc4c(c3)CC(=O)N4)c2[nH]1)S(C)(=O)=O [A1, N-Methyl-N-{3-[7-(2-oxo-2,3-dihydro-1H-indol-5-ylamino)-1H-pyrrolo-[2,3-c]pyridin-2-yl]-pyridin-2-yl}methanesulfonamide]"
2,3 to 50 µM,"CN(c1ncccc1-c1cc2ccnc(Nc3ccc(N4CCOCC4)cc3)c2[nH]1)S(C)(=O)=O [A2, N-Methyl-N-{3-[7-(4-morpholin-4-ylphenyl-amino)-1H-pyrrolo[2,3-c]pyridin-2-yl]pyridin-2-yl}methanesulfonamide]"
3,3 to 50 µM,"CN(c1ncccc1-c1cc2ccnc(Nc3ccc4c(c3)CCC(=O)N4)c2[nH]1)S(C)(=O)=O [A3, N-Methyl-N-{3-[7-(2-oxo-1,2,3,4-tetrahydroquinolin-6-ylamino)-1H-pyrrolo[2,3-c]pyridin-2-yl]pyridin-2-yl}methanesulfonamide]"
4,3 to 50 µM,"COc1cc(N2CCOCC2)ccc1Nc1ncnc2nc(-c3cccnc3N(C)S(C)(=O)=O)[nH]c12 [A4, N-{3-[6-(2-Methoxy-4-morpholin-4-ylphenyl-amino)-7H-purin-8-yl]pyridin-2-yl}-N-methyl-methanesulfonamide]"
5,3 to 50 µM,"CN(c1ncccc1-c1nc2ncnc(Nc3ccc(N4CCOCC4)cc3)c2[nH]1)S(C)(=O)=O [A5, N-Methyl-N-{3-[6-(4-morpholin-4-ylphenyl-amino)-7H-purin-8-yl]pyridin-2-yl}methanesulfonamide]"
6,3 to 50 µM,"CN(c1ncccc1-c1nc2ncnc(Nc3cnn(C)c3)c2[nH]1)S(C)(=O)=O [A6, N-Methyl-N-{3-[6-(1-methyl-1H-pyrazol-4-yl-amino)-7H-purin-8-yl]pyridin-2-yl}methanesulfonamide]"
7,3 to 50 µM,"CN(c1ncccc1-c1nc2ccnc(Nc3ccc4c(c3)CCC(=O)N4)c2[nH]1)S(C)(=O)=O [A7, N-Methyl-N-{3-[4-(2-oxo-1,2,3,4-tetra-hydroquinolin-6-ylamino)-3H-imidazo[4,5-c]-pyridin-2-yl]pyridin-2-yl}methanesulfonamide]"

# Molecular target: T2, PDK1 (Homo sapiens, UniProt O15530)
# T2 construct: the PDK1 sample His6-PDK1(Δ1-50)(3.4 nM)
# T2 sequence (O15530 51-556): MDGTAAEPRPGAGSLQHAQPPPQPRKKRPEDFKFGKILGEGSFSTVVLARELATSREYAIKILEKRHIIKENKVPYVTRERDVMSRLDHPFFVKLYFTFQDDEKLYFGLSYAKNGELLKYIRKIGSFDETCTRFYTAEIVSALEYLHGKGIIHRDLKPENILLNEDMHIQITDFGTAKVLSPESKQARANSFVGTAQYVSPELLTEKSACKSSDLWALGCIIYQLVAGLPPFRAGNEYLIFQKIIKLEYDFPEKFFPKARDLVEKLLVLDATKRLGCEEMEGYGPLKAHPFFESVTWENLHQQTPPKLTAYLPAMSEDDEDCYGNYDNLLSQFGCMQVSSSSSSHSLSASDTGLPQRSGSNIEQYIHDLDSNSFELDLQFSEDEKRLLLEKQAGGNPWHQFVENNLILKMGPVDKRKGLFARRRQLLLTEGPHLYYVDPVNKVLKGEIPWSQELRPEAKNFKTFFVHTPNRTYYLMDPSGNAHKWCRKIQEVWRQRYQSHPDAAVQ
# Assay: Test for the inhibition of PDK1, 384-well flashplate
# Assay type: biochemical
# Details: enzymatic; 4 μM ATP
# Protocol: The experimental batches are carried out in a flashplate system with 384 wells/microtitration plate.
# In each case, the PDK1 sample His6-PDK1(Δ1-50)(3.4 nM) (“His6” disclosed as SEQ ID NO: 4), the PDK1 substrate biotin-bA-bA-[…] (SEQ ID NO: 1) (400 nM), 4 μM ATP (with 0.2 μCi of 33P-ATP/well) and the test substance in 50 μl of conventional experimental solution per well are incubated at 30° C. for 60 min. The test substances are employed in corresponding concentrations (if desired in a dilution series). The control is carried out without test substance. The reaction is stopped using standard methods and washed. The activity of the kinase is measured via the incorporated radioactivity in top count. In order to determine the non-specific kinase reaction (blank value), the experimental batches are carried out in the presence of 100 nM staurosporine.
# The radioactivity (decompositions per minute) of the blank value (no use of test substance in the presence of staurosporine) is subtracted from all other radioactivity values. The controls (kinase activity without test substance) are set equal to 100 percent and all other radioactivity values (after subtracting the blank value) are expressed set in relation thereto (for example in % of the control).
row,IC50,SMILES
1,3 to 50 µM,"FC(F)(F)c1cnc2[nH]c(-c3ccc(N4CCOCC4)cc3)cc2c1-c1cn[nH]c1 [A102, 2-(4-Morpholin-4-ylphenyl)-4-(1H-pyrazol-4-yl)-5-trifluoromethyl-1H-pyrrolo[2,3-b]pyridine]"
2,0.3 to 3 µM,"Cn1cc(-c2c(C(F)(F)F)cnc3[nH]c(-c4cccc(N5CCOCC5)c4)cc23)cn1 [A104, 4-(1-Methyl-1H-pyrazol-4-yl)-2-(3-morpholin-4-ylphenyl)-5-trifluoromethyl-1H-pyrrolo[2,3-b]-pyridine]"
3,0.3 to 3 µM,"Cn1cc(-c2c(C(F)(F)F)cnc3[nH]c(-c4ccc(F)cc4)cc23)cn1 [A105, 2-(4-Fluorophenyl)-4-(1-methyl-1H-pyrazol-4-yl)-5-trifluoromethyl-1H-pyrrolo[2,3-b]pyridine]"
